Experiments:
[1] = system: MDA-MB-175-VII (Breast Carcinoma); experiment: Bliss excess, mean over the matrix (fraction); higher = more synergy
How it was run: (§1)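 Cell lines grown in DMEM/F12 or RPMI with 10% FBS were plated in 1536-well plates and held 24 hours at 37°C, 5% CO2 before 72 hours of exposure to two-drug dose matrices, with DMSO typically at 0.2%. CellTiter-Glo 2.0 luminescence gave viability, which was converted to inhibition. Vehicle wells were set to 0 and blank wells to 1. Combination Emax is the second-highest inhibition in the matrix, and Bliss excess is the observed combination effect minus the expected EA + EB − EA·EB, where EA and EB are the single-agent effects.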

[2] = system: NCI-H1648 (Lung Adenocarcinoma); experiment: as above
How it was run: as §1

[3] = system: GCIY (Gastric Carcinoma); experiment: combination Emax (second highest fraction inhibited in the dose matrix, 72 h); higher = more inhibition; extreme values may be limits of the assay
How it was run: as §1

[4] = system: L-363 (Plasma Cell Myeloma); experiment: as above
How it was run: as §1

[5] = system: NCI-H2009 (Lung Adenocarcinoma); experiment: as above
How it was run: as §1

[6] = system: SW1463 (Colorectal Carcinoma); experiment: as above
How it was run: as §1

[7] = system: JJN-3 (Plasma Cell Myeloma); experiment: Bliss excess, mean over the matrix (fraction); higher = more synergy
How it was run: as §1

[8] = system: SBC-5 (Small Cell Lung Carcinoma); experiment: combination Emax (second highest fraction inhibited in the dose matrix, 72 h); higher = more inhibition; extreme values may be limits of the assay
How it was run: as §1

[9] = system: SCC90 (Head and Neck Carcinoma); experiment: as above
How it was run: as §1

[10] = system: HT-1197 (Bladder Carcinoma); experiment: Bliss excess, mean over the matrix (fraction); higher = more synergy
How it was run: as §1

[11] = system: NCI-H1975 (Lung Adenocarcinoma); experiment: as above
How it was run: as §1

[12] = system: SUP-HD1 (Hodgkin's Lymphoma); experiment: as above
How it was run: as §1

[13] = system: ATN-1 (T-Lymphoblastic Leukemia); experiment: combination Emax (second highest fraction inhibited in the dose matrix, 72 h); higher = more inhibition; extreme values may be limits of the assay
How it was run: as §1

[14] = system: HT-1197 (Bladder Carcinoma); experiment: as above
How it was run: as §1

[15] = system: NCI-H1048 (Small Cell Lung Carcinoma); experiment: as above
How it was run: as §1
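For Bliss excess, mean over the matrix in this document: after 72 h of two-drug dosing.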

Row | SMILES | Bliss excess [1] | Bliss excess [2] | combination Emax [3] | combination Emax [4] | combination Emax [5] | combination Emax [6] | Bliss excess [7] | combination Emax [8] | combination Emax [9] | Bliss excess [10] | Bliss excess [11] | Bliss excess [12] | combination Emax [13] | combination Emax [14] | combination Emax [15]
1 | C[C@@H](Oc1cc(-c2cnn(C3CCNCC3)c2)cnc1N)c1c(Cl)ccc(F)c1Cl [Crizotinib] + CC1=C(C(=CC=C1)Cl)NC(=O)C2=CN=C(S2)NC3=CC(=NC(=N3)C)N4CCN(CC4)CCO [Dasatinib] (first compound max 10 µM, 7x7, partner max 2 µM) | -0.0527 | 0.0331 | 0.863 | 0.632 | 0.88 | 0.133 | – | – | – | – | – | – | – | – | –
2 | C[C@@H](Oc1cc(-c2cnn(C3CCNCC3)c2)cnc1N)c1c(Cl)ccc(F)c1Cl [Crizotinib] + Cn1cnc2c(F)c(Nc3ccc(Br)cc3Cl)c(C(=O)NOCCO)cc21 [Selumetinib] (first compound max 10 µM, 7x7, partner max 10 µM) | 0.0011 | -0.108 | 0.46 | 0.871 | 0.664 | 0.622 | – | – | – | – | – | – | – | – | –
3 | CS(=O)(=O)CCNCc1ccc(-c2ccc3ncnc(Nc4ccc(OCc5cccc(F)c5)c(Cl)c4)c3c2)o1 [Lapatinib] + Cn1cnc2c(F)c(Nc3ccc(Br)cc3Cl)c(C(=O)NOCCO)cc21 [Selumetinib] (first compound max 10 µM, 7x7, partner max 10 µM) | 0.0577 | 0.116 | 0.543 | 0.104 | 0.53 | 0.868 | – | – | – | – | – | – | – | – | –
4 | CS(=O)(=O)CCNCc1ccc(-c2ccc3ncnc(Nc4ccc(OCc5cccc(F)c5)c(Cl)c4)c3c2)o1 [Lapatinib] + NC1(c2ccc(-c3nc4ccn5c(=O)[nH]nc5c4cc3-c3ccccc3)cc2)CCC1 [MK-2206] (first compound max 10 µM, 7x7, partner max 10 µM) | 0.0563 | 0.0349 | 0.934 | 0.912 | 0.431 | 0.868 | 0.0508 | 0.853 | 0.962 | – | – | – | – | – | –
5 | O=C(c1cc(Cc2n[nH]c(=O)c3ccccc23)ccc1F)N1CCN(C(=O)C2CC2)CC1 [Olaparib] + CC1(C)CCC(CN2CCN(c3ccc(C(=O)NS(=O)(=O)c4ccc(NCC5CCOCC5)c([N+](=O)[O-])c4)c(Oc4cnc5[nH]ccc5c4)c3)CC2)=C(c2ccc(Cl)cc2)C1 [Venetoclax] (first compound max 10 µM, 7x7, partner max 1 µM) | -0.0483 | -0.0403 | 0.119 | 0.305 | 0.174 | 0.229 | – | – | – | – | – | – | – | – | –
6 | O=C(c1cc(Cc2n[nH]c(=O)c3ccccc23)ccc1F)N1CCN(C(=O)C2CC2)CC1 [Olaparib] + CN(CC[C@H](CSC1=CC=CC=C1)NC2=C(C=C(C=C2)S(=O)(=O)NC(=O)C3=CC=C(C=C3)N4CCC(CC4)[C@H](C5=CC=CC=C5C6=CC=C(C=C6)Cl)O)S(=O)(=O)C(F)(F)F)CCO [AZD4320] (first compound max 10 µM, 7x7, partner max 1 µM) | -0.0001 | -0.0497 | 0.643 | 0.403 | 0.112 | 0.333 | – | – | – | – | – | – | – | – | –
7 | O=C(c1cc(Cc2n[nH]c(=O)c3ccccc23)ccc1F)N1CCN(C(=O)C2CC2)CC1 [Olaparib] + COc1nnc2ccc(N3CCC(c4ccc(OCCN5CCN(C)C(=O)[C@H]5C)cc4)CC3)nn12 [AZD5153] (first compound max 10 µM, 7x7, partner max 1 µM) | -0.0024 | -0.0388 | 0.487 | 0.468 | 0.374 | 0.561 | – | – | – | – | – | – | – | – | –
8 | CCc1c2c(nc3ccc(O)cc13)-c1cc3c(c(=O)n1C2)COC(=O)[C@]3(O)CC [SN-38] + O=C(c1cc(Cc2n[nH]c(=O)c3ccccc23)ccc1F)N1CCN(C(=O)C2CC2)CC1 [Olaparib] (first compound max 0.3 µM, 7x7, partner max 10 µM) | 0.0367 | 0.0133 | 0.779 | 0.421 | 0.442 | 0.473 | 0.0187 | – | 0.632 | 0.0465 | 0.0248 | -0.0168 | 1 | 0.35 | 0.987
9 | Cc1nc(-c2cn3c(n2)-c2ccc(-c4cnn(C(C)(C)C(N)=O)c4)cc2OCC3)n(C(C)C)n1 [Taselisib] + O=C(Nc1ccc2[nH]nc(-c3ccncc3)c2c1)[C@@H]1CCN(CC(=O)N2CCN(c3ccc(-c4ncccn4)cc3)CC2)C1 [SCH772984] (first compound max 10 µM, 7x7, partner max 5 µM) | 0.138 | 0.115 | 0.888 | 0.63 | 0.919 | 0.798 | – | – | – | – | – | – | – | – | –
10 | CC1(C)CCC(CN2CCN(c3ccc(C(=O)NS(=O)(=O)c4ccc(NCC5CCOCC5)c([N+](=O)[O-])c4)c(Oc4cnc5[nH]ccc5c4)c3)CC2)=C(c2ccc(Cl)cc2)C1 [Venetoclax] + CS(=O)(=O)CCNCc1ccc(-c2ccc3ncnc(Nc4ccc(OCc5cccc(F)c5)c(Cl)c4)c3c2)o1 [Lapatinib] (first compound max 1 µM, 7x7, partner max 10 µM) | 0.0085 | 0.04 | 0.276 | 0.133 | 0.151 | 0.4 | – | – | – | – | – | – | – | – | –

Reference: the supplement of paper PMC11061612
